Experiments:
c-Met [1] = target: T1, c-Met (Homo sapiens, UniProt P08581); test: Cell based ELISA assay for HGF stimulated c-Met phosphorylation in S114 cells; set-up: expressed in transfected cells; host or cells: S114 (murine NIH 3T3 derived); settings: read-out: c-Met Cell ELISA IC-50
Description: A cell based ELISA assay was developed to evaluate the ability of compounds to inhibit HGF stimulated c-Met phosphorylation in cells.
S114 cells were seeded to a 96 well tissue culture treated dish at a concentration of 5×10^4 per well. After a 16-20 hour incubation, culture medium was removed and replaced with serum free medium supplemented with 0.5% BSA. Test compound was then added and incubated with the cells for 60 minutes, followed by the addition of 1 μl HGF at […] for 15 minutes. […] Following another 1 hour incubation at room temperature the plates were washed three times with Delfia wash buffer (Perkin Elmer). After the final wash, […] of Delfia enhancer solution (Perkin Elmer) was added and allowed to incubate for 60 minutes. Plates were read on an LJL Analyst instrument (Molecular Devices; Sunnyvale, Calif.) with filter settings of 360 excitation, 620 emission, and 410 dichroic. IC50 values were calculated using Graphpad Prism software (Graphpad Software; San Diego, Calif.).
Target sequence in this assay (P08581 25-1390): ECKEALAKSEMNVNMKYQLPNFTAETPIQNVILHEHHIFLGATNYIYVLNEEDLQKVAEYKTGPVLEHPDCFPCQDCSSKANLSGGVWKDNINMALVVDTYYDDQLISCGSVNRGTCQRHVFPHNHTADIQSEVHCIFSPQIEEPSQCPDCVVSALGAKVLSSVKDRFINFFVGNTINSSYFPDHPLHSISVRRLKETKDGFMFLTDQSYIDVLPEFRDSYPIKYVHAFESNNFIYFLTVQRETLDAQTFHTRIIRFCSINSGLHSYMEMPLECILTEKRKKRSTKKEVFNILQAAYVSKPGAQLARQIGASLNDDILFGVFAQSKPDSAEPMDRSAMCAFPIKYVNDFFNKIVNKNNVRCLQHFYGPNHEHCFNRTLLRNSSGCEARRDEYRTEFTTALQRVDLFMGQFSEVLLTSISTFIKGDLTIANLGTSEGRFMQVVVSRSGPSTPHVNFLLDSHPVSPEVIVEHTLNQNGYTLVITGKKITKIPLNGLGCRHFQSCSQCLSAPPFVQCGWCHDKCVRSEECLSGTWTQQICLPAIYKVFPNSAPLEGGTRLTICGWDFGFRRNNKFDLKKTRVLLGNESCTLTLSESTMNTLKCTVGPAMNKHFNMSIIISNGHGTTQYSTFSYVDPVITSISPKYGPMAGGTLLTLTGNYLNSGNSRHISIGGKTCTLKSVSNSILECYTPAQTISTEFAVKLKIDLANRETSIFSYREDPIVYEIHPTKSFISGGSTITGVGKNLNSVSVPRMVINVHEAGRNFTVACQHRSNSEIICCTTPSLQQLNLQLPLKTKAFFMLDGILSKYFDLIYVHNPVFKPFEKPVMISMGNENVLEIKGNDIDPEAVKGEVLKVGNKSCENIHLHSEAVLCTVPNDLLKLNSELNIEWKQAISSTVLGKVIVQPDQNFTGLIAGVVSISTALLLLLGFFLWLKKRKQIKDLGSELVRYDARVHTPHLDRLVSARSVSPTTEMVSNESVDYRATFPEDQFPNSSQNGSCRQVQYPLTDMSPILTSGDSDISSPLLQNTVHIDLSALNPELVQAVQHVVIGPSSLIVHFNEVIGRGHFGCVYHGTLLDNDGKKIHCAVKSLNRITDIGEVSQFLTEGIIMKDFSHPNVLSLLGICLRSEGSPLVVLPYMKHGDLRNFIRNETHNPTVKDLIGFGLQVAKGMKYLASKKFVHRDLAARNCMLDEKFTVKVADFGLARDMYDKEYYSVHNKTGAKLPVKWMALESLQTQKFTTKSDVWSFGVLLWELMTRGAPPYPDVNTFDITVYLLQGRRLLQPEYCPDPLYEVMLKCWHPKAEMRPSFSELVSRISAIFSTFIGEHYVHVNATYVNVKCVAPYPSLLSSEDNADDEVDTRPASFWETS

c-Met [2] = target: T1, c-Met; test: Delfia autophosphorylation kinase assay on the c-Met; format: biochemical; set-up: The purified His6 tagged cytoplasmic domain of c-Met was diluted to a concentration of 500 ng/ml; host or cells: Sf9 insect cells (baculovirus, pFastBacHTa); settings: His6 tagged cytoplasmic domain of c-Met, 1 μM ATP; read-out: cMet Delfia autophos IC-50
Description: A DELFIA time resolved fluorescence assay was developed for screening of compounds that decreases the autophosphorylation thus the kinase activity of c-Met. The DELFIA assay is non-radioactive. The autophosphorylation of the c-Met is measured by an anti-phosphotyrosine antibody coupled to an Europium tag.
A major advantage of this format is that it allowed for the development of an autophosphorylation assay using Ni-chelate plates which bind the hexa-his tag on the recombinant Met kinase. The autophosphorylation assay allows one to use a known substrate, Met kinase itself, for the phosphorylation.
The assay procedure for screening is as follows. The purified His6 tagged cytoplasmic domain of c-Met was diluted to a concentration of 500 ng/ml in enzyme dilution buffer (50 mM Tris-HCl, pH8.0, 0.1% BSA) and dispensed to assay plates at a volume of 50 μl per well. Black opaque HisGrab Nickel coated 96 well plates (Pierce, Rockford, Ill.) were selected for use. Next, 2.5 μl of compound in 40% DMSO was added to test wells, 2.5 μl of 40% DMSO only was added to the negative control wells. The autophosphorylation reaction was initiated upon the addition of 50 μl of reaction buffer, 50 mM Tris-HCl, pH 8.0, 10 mM MgCl2, 0.1 mM Na3VO4, 1 mM DTT, 1 μM ATP. Plates were incubated at room temperature for 1 hour followed by 2 washes with 200 μl/well of PBS. Europium conjugated anti-phosphotyrosine antibody, Eu-PY20 from Perkin Elmer was diluted to 50 ng/ml in Delfia AB buffer (Perkin Elmer, Boston, Mass.), added to the 96 well assay plates at a volume of 100 μl/well, and incubated at room temperature for 2 hours. Assay plates were then washed 4 times each with 200 μl/well of Delfia wash buffer (Perkin Elmer). After the final wash 150 μl of Delfia Enhancement solution (Perkin Elmer) was added to each well of the assay plate and incubated at room temperature for 1 hour. Plates were read on an LJL Analyst instrument (Molecular Devices; Sunnyvale, Calif.) with filter settings of 360 excitation, 620 emission, and 410 dichroic. IC50 values were calculated using Graphpad Prism software (Graphpad Software; San Diego, Calif.).
Target sequence in this assay (P08581 956-1390 limits assumed): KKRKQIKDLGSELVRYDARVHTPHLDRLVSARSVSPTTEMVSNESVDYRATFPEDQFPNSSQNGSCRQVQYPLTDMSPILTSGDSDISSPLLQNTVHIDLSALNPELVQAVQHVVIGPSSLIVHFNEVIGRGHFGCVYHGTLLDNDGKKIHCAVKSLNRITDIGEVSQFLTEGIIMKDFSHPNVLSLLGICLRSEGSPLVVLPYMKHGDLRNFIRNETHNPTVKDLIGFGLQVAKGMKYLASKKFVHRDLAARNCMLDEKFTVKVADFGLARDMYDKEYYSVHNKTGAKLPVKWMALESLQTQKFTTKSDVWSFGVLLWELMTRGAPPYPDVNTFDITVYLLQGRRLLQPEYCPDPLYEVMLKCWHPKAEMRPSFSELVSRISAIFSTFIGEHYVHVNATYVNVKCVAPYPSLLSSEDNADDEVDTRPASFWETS

| SMILES | IC50 (c-Met [1]) [nM] | IC50 (c-Met [2]) [nM] |
| --- | --- | --- |
| CCCn1cc(-c2ccc3nnc(Cc4ccc5ncccc5c4)n3n2)cn1 [Example 9, 6-[6-(1-Propyl-1H-pyrazol-4-yl)-[1,2,4]triazolo[4,3-b]pyridazin-3-ylmethyl]-quinoline] | 48 | 1.6 |
| c1cncc(-c2ccc3nnc(Cc4ccc5ncccc5c4)n3n2)c1 [Example 11, 6-(6-Pyridin-3-yl-[1,2,4]triazolo[4,3-b]pyridazin-3-ylmethyl)-quinoline] | 86 | 6 |
| Nc1nc2ccc(Cc3nnc4ccc(-c5cccnc5)nn34)cc2s1 [Example 13, 6-(6-Pyridin-3-yl-[1,2,4]triazolo[4,3-b]pyridazin-3-ylmethyl)-benzothiazol-2-ylamine] | 215 | 15 |
| CS(=O)(=O)n1cc(-c2ccc3nnc(Cc4ccc5ncccc5c4)n3n2)cn1 [Example 15, 6-[6-(1-Methanesulfonyl-1H-pyrazol-4-yl)-[1,2,4]triazolo[4,3-b]pyridazin-3-ylmethyl]-quinoline] | 88 | 2 |
| COCCn1cc(-c2ccc3nnc(Cc4ccc5ncccc5c4)n3n2)cn1 [Example 16, 6-{6-[1-(2-Methoxy-ethyl)-1H-pyrazol-4-yl]-[1,2,4]triazolo[4,3-b]pyridazin-3-ylmethyl}-quinoline] | 295 | 9 |
| Oc1ccc(Cc2nnc3ccc(-c4nccs4)nn23)cc1 [Example 18, 4-(6-Thiazol-2-yl-[1,2,4]triazolo[4,3-b]pyridazin-3-ylmethyl)-phenol] | 86 | 10 |
| CCCc1ncc(-c2ccc3nnc(Cc4ccc5ncccc5c4)n3n2)s1 [Example 20, 6-[6-(2-Propyl-thiazol-5-yl)-[1,2,4]triazolo[4,3-b]pyridazin-3-ylmethyl]-quinoline] | 7 | 1 |
| c1csc(-c2ccc3nnc(Cc4ccc5c(c4)CCO5)n3n2)c1 [Example 22, 3-(2,3-Dihydro-benzofuran-5-ylmethyl)-6-thiophen-2-yl-[1,2,4]triazolo[4,3-b]pyridazine] | 9 | 15 |
| Cc1ccsc1-c1ccc2nnc(Cc3ccc4c(c3)CCO4)n2n1 [Example 23, 3-(2,3-Dihydro-benzofuran-5-ylmethyl)-6-(3-methyl-thiophen-2-yl)-[1,2,4]triazolo[4,3-b]pyridazine] | 113 | 41 |
| COc1ccc(Cc2nnc3ccc(-c4cccs4)nn23)cc1 [Example 25, 3-(4-Methoxy-benzyl)-6-thiophen-2-yl-[1,2,4]triazolo[4,3-b]pyridazine] | 483 | 41 |
| COc1ccc(Cc2nnc3ccc(-c4cccs4)nn23)cn1 [Example 31, 3-(6-Methoxy-pyridin-3-ylmethyl)-6-thiophen-2-yl-[1,2,4]triazolo[4,3-b]pyridazine] | 2400 | 77 |
| c1csc(-c2ccc3nnc(Cc4ccncc4)n3n2)c1 [Example 33, 3-Pyridin-4-ylmethyl-6-thiophen-2-yl-[1,2,4]triazolo[4,3-b]pyridazine] | 9900 | 96 |
| c1csc(-c2ccc3nnc(Cc4ccc5occc5c4)n3n2)c1 [Example 35, 3-Benzofuran-5-ylmethyl-6-thiophen-2-yl-[1,2,4]triazolo[4,3-b]pyridazine] | 75 | 9 |
| c1csc(-c2ccc3nnc(Cc4ccc5c(c4)OCO5)n3n2)c1 [Example 37, 3-Benzo[1,3]dioxol-5-ylmethyl-6-thiophen-2-yl-[1,2,4]triazolo[4,3-b]pyridazine] | 346 | 16 |
| Nc1nc2ccc(Cc3nnc4ccc(-c5cccs5)nn34)cc2s1 [Example 38, 6-(6-Thiophen-2-yl-[1,2,4]triazolo[4,3-b]pyridazin-3-ylmethyl)-benzothiazol-2-ylamine] | 2 | 0.45 |
| c1csc(-c2ccc3nnc(Cc4ccc5ncccc5c4)n3n2)c1 [Example 39, 6-(6-Thiophen-2-yl-[1,2,4]triazolo[4,3-b]pyridazin-3-ylmethyl)-quinoline] | 1 | 2 |
| c1cc2c(cc1Cc1nnc3ccc(-c4ccc(CN5CCOCC5)s4)nn13)CCO2 [Example 42, 3-(2,3-Dihydro-benzofuran-5-ylmethyl)-6-(5-morpholin-4-ylmethyl-thiophen-2-yl)-[1,2,4]triazolo[4,3-b]pyridazine] | 406 | 13 |
| c1cnc2ccc(Cc3nnc4ccc(-n5ccnc5)nn34)cc2c1 [Example 43, 6-(6-Imidazol-1-yl-[1,2,4]triazolo[4,3-b]pyridazin-3-ylmethyl)-quinoline] | 140 | 11 |

More lines, now with the values ahead:

| IC50 (c-Met [1]) [nM] | IC50 (c-Met [2]) [nM] | SMILES |
| --- | --- | --- |
| 143 | 2 | Brc1cn(-c2ccc3nnc(Cc4ccc5ncccc5c4)n3n2)cn1 [Example 44, 6-[6-(4-Bromo-imidazol-1-yl)-[1,2,4]triazolo[4,3-b]pyridazin-3-ylmethyl]-quinoline] |
| 1 | 0.4 | CN1CCN(C(=O)c2ccc(-c3ccc4nnc(Cc5ccc6ncccc6c5)n4n3)s2)CC1 [Example 47, (4-Methyl-piperazin-1-yl)-[5-(3-quinolin-6-ylmethyl-[1,2,4]triazolo[4,3-b]pyridazin-6-yl)-thiophen-yl]-methanone] |
| 14 | 2 | CCOC(=O)c1ccc(-c2ccc3nnc(Cc4ccc(O)cc4)n3n2)s1 [Example 48, 5-[3-(4-Hydroxy-benzyl)-[1,2,4]triazolo[4,3-b]pyridazin-6-yl]-thiophene-2-carboxylic acid ethyl ester] |
| 343 | 2.1 | CN(C)CCCNC(=O)c1ccc(-c2ccc3nnc(Cc4ccc(O)cc4)n3n2)s1 [Example 49, 5-[3-(4-Hydroxy-benzyl)-[1,2,4]triazolo[4,3-b]pyridazin-6-yl]-thiophene-2-carboxylic acid (3-dimethylamino-propyl)-amide] |
| 12 | 2 | CN1CCN(C(=O)c2ccc(-c3ccc4nnc(Cc5ccc6c(c5)CCO6)n4n3)s2)CC1 [Example 50, {5-[3-(2,3-Dihydro-benzofuran-5-ylmethyl)-[1,2,4]triazolo[4,3-b]pyridazin-6-yl]-thiophen-2-yl}-(4-methyl-piperazin-1-yl)-methanone] |
| 8 | 0.2 | COCCN(CCOC)C(=O)c1ccc(-c2ccc3nnc(Cc4ccc5c(c4)CCO5)n3n2)s1 [Example 51, 5-[3-(2,3-Dihydro-benzofuran-5-ylmethyl)-[1,2,4]triazolo[4,3-b]pyridazin-6-yl]-thiophene-2-carboxylic acid bis-(2-methoxy-ethyl)-amide] |
| 40 | 3 | O=C(NCCN1CCOCC1)c1ccc(-c2ccc3nnc(Cc4ccc5c(c4)CCO5)n3n2)s1 [Example 52, 5-[3-(2,3-Dihydro-benzofuran-5-ylmethyl)-[1,2,4]triazolo[4,3-b]pyridazin-6-yl]-thiophene-2-carboxylic acid (2-morpholin-4-yl-ethyl)-amide] |
| 35 | 4 | CC(C)CCNC(=O)c1ccc(-c2ccc3nnc(Cc4ccc5c(c4)CCO5)n3n2)s1 [Example 53, 5-[3-(2,3-Dihydro-benzofuran-5-ylmethyl)-[1,2,4]triazolo[4,3-b]pyridazin-6-yl]-thiophene-2-carboxylic acid (3-methyl-butyl)-amide] |
| 1 | 1 | CC(C)N1CCN(C(=O)c2ccc(-c3ccc4nnc(Cc5ccc6ncccc6c5)n4n3)s2)CC1 [Example 55, (4-Isopropyl-piperazin-1-yl)-[5-(3-quinolin-6-ylmethyl-[1,2,4]triazolo[4,3-b]pyridazin-6-yl)-thiophen-2-yl]-methanone] |
